Bridge positions count the residues as written; N and C are the ends. Square brackets hold non-standard residues; d marks the D form. Peptide text beside a SMILES is read from it. Pro(4R-NH2) = N[C@H]1CN[C@H](C(=O)O)C1; Gly(N-2-aminoethyl) = NCCNCC(=O)O; Pen = CC(C)(S)[C@H](N)C(=O)O; dDab = NCC[C@@H](N)C(=O)O; Nle = CCCC[C@H](N)C(=O)O; Dab = NCC[C@H](N)C(=O)O
Experiments:
[1] = system: human red blood cells (hRBC); assay: Hemolysis of human red blood cells; assay type: cell-based; settings: red cells of human, 1 h
Protocol: Lyophilized peptides were weighed on a Microbalance (Mettler MT5) and dissolved in sterile water to a final concentration of 1 mg/mL. Stock solutions were kept at +4° C., light protected. The peptides were tested for their hemolytic activity against human red blood cells (hRBC). Fresh hRBC were washed three times with phosphate buffered saline (PBS) and centrifuged for 5 min at 3000×g. Compounds (200 μg/mL) were incubated with 20% hRBC (v/v) for 1 h at 37° C. and shaking at 300 rpm. […] The samples were centrifuged, the supernatants were 8-fold diluted in PBS buffer and the optical densities (OD) were measured at 540 nm. […] Percent hemolysis was calculated as follows: (OD540peptide/OD540H2O)×100%.

[2] = system: Escherichia coli ATCC 25922; settings: ATCC 25922
Protocol: (§1) Lyophilized peptides were weighed on a Microbalance (Mettler MT5) and dissolved in sterile water to a final concentration of 1 mg/mL. Stock solutions were kept at +4° C., light protected.
(§2) Colonies of the microorganisms were diluted in saline (0.85%, NaCl) and adjusted using a McFarland reader (bioMérieux SA, Marcy-l'Etoile, France) to 0.5 McFarland standard. Subsequently, the bacterial suspension was diluted in Mueller-Hinton II (MHII, cation adjusted) broth to give approximately 5×10^5 colony forming units (CFU/mL).
(§3) 10^6 colony forming units (CFU)/mL. Aliquots (90 μl) of inoculate were added to 10 μl of water+P-80 (Polysorbate 80, 0.002% final concentration) containing the peptide in serial two-fold dilutions at 10 fold final concentration. The following microorganisms were used to determine antibiotic selectivity of the peptides: Escherichia coli ATCC 25922, Escherichia coli MCR-1 Af 45 and Klebsiella pneumoniae SSI3010.

[3] = system: Klebsiella pneumoniae SSI3010; settings: SSI3010
Protocol: as §1, §2, §3

[4] = system: Escherichia coli MCR-1 Af 45; settings: MCR-1 Af 45
Protocol: as §1, §2, §3

Row | Structure (SMILES) | Escherichia coli ATCC 25922 MIC [2] [µg/mL] | Klebsiella pneumoniae SSI3010 MIC [3] [µg/mL] | Escherichia coli MCR-1 Af 45 MIC [4] [µg/mL] | Hemolysis at 0.2 g/L [1] [%]
1 | CCCC[C@H](NC(=O)[C@H](CCCNC(=N)N)NC(=O)[C@H](CCN)NC(=O)[C@@H]1CSSC(C)(C)[C@H](NC(=O)[C@H](Cc2ccc(O)cc2)NC(=O)[C@@H](NC(=O)[C@@H](NC(=O)[C@@H]2C[C@@H](N)CN2C(=O)[C@@H](NC(=O)[C@@H]2CCCN2)C(C)C)[C@@H](C)CC)[C@@H](C)CC)C(=O)N[C@@H](CC(N)=O)C(=O)N[C@@H](CCCNC(=N)N)C(=O)N[C@@H](CCN)C(=O)N[C@@H]([C@@H](C)O)C(=O)N[C@H](CCN)C(=O)N[C@@H](CCCCN)C(=O)N1)C(=O)O [Example 5, Pro-Val-Pro((4R)NH2)-Ile-Ile-Tyr-Pen-Asn-Arg-Dab-Thr-^DDab-Lys-Cys-Dab-Arg-Nle] (HELM PEPTIDE1{P.V.[N[C@@H]1C[C@@H](C(=O)[*:2])N([*:1])C1].I.I.Y.[Pen].N.R.[Dab].T.[NCC[C@@H](N[*:1])C(=O)[*:2]].K.C.[Dab].R.[Nle]}$PEPTIDE1,PEPTIDE1,7:R3-14:R3$$$V2.0) | 0.0625 | 0.25 | 0.0625 | 0
2 | CCCC[C@H](NC(=O)[C@H](CCCNC(=N)N)NC(=O)[C@H](CCN)NC(=O)[C@@H]1CSSC(C)(C)[C@H](NC(=O)[C@H](Cc2ccc(O)cc2)NC(=O)[C@@H](NC(=O)[C@@H](NC(=O)[C@@H]2CCCN2C(=O)[C@@H](NC(=O)CNCCN)C(C)C)[C@@H](C)CC)[C@@H](C)CC)C(=O)N[C@@H](CC(N)=O)C(=O)N[C@@H](CCCNC(=N)N)C(=O)N[C@@H](CCN)C(=O)N[C@@H]([C@@H](C)O)C(=O)N[C@H](CCN)C(=O)N[C@@H](CCCCN)C(=O)N1)C(=O)O [Example 6, Ndab-Val-Pro-Ile-Ile-Tyr-Pen-Asn-Arg-Dab-Thr-^DDab-Lys-Cys-Dab-Arg-Nle] (HELM PEPTIDE1{[NCCNCC(=O)[*:2]].V.P.I.I.Y.[Pen].N.R.[Dab].T.[NCC[C@@H](N[*:1])C(=O)[*:2]].K.C.[Dab].R.[Nle]}$PEPTIDE1,PEPTIDE1,7:R3-14:R3$$$V2.0) | 0.125 | 0.25 | 0.125 | 0
3 | CCCC[C@H](NC(=O)[C@H](CCCNC(=N)N)NC(=O)[C@H](CCN)NC(=O)[C@@H]1CSSC(C)(C)[C@H](NC(=O)[C@H](Cc2ccc(O)cc2)NC(=O)[C@@H](NC(=O)[C@@H](NC(=O)CN(CCN)C(=O)[C@@H](NC(=O)[C@@H]2CCCN2)C(C)C)[C@@H](C)CC)[C@@H](C)CC)C(=O)N[C@@H](CC(N)=O)C(=O)N[C@@H](CCCNC(=N)N)C(=O)N[C@@H](CCN)C(=O)N[C@@H]([C@@H](C)O)C(=O)N[C@H](CCN)C(=O)N[C@@H](CCCCN)C(=O)N1)C(=O)O [Example 7, Pro-Val-Ndab-Ile-Ile-Tyr-Pen-Asn-Arg-Dab-Thr-^DDab-Lys-Cys-Dab-Arg-Nle] (HELM PEPTIDE1{P.V.[NCCN(CC(=O)[*:2])[*:1]].I.I.Y.[Pen].N.R.[Dab].T.[NCC[C@@H](N[*:1])C(=O)[*:2]].K.C.[Dab].R.[Nle]}$PEPTIDE1,PEPTIDE1,7:R3-14:R3$$$V2.0) | 0.125 | 0.25 | 0.25 | 0
4 | CCCC[C@H](NC(=O)[C@H](CCCNC(=N)N)NC(=O)[C@H](CCN)NC(=O)[C@@H]1CSSC(C)(C)[C@H](NC(=O)[C@H](Cc2ccc(O)cc2)NC(=O)[C@@H](NC(=O)[C@@H](NC(=O)[C@@H]2C[C@@H](N)CN2C(=O)[C@@H](NC(=O)[C@@H]2C[C@@H](N)CN2)C(C)C)[C@@H](C)CC)[C@@H](C)CC)C(=O)N[C@@H](CC(N)=O)C(=O)N[C@@H](CCCNC(=N)N)C(=O)N[C@@H](CCN)C(=O)N[C@@H]([C@@H](C)O)C(=O)N[C@H](CCN)C(=O)N[C@@H](CCCCN)C(=O)N1)C(=O)O [Example 8, Pro((4R)NH2)-Val-Pro((4R)NH2)-Ile-Ile-Tyr-Pen-Asn-Arg-Dab-Thr-^DDab-Lys-Cys-Dab-Arg-Nle] (H-[Pro(4R-NH2)]V[Pro(4R-NH2)]IIY[Pen]NR[Dab]T[dDab]KC[Dab]R[Nle]-OH; disulfide 7-14) | 0.0625 | 0.125 | 0.0625 | 0
5 | CCCC[C@H](NC(=O)[C@H](CCCNC(=N)N)NC(=O)[C@H](CCN)NC(=O)[C@@H]1CSSC(C)(C)[C@H](NC(=O)[C@H](Cc2ccc(O)cc2)NC(=O)[C@@H](NC(=O)[C@@H](NC(=O)[C@@H]2C[C@@H](N)CN2C(=O)[C@@H](NC(=O)[C@@H]2C[C@@H](N)CN2)C(C)C)[C@@H](C)CC)[C@@H](C)O)C(=O)N[C@@H](CC(N)=O)C(=O)N[C@@H](CCCNC(=N)N)C(=O)N[C@@H](CCN)C(=O)N[C@@H]([C@@H](C)O)C(=O)N[C@H](CCN)C(=O)N[C@@H](CCCCN)C(=O)N1)C(=O)O [Example 9, Pro((4R)NH2)-Val-Pro((4R)NH2)-Ile-Thr-Tyr-Pen-Asn-Arg-Dab-Thr-^DDab-Lys-Cys-Dab-Arg-Nle] (H-[Pro(4R-NH2)]V[Pro(4R-NH2)]ITY[Pen]NR[Dab]T[dDab]KC[Dab]R[Nle]-OH; disulfide 7-14) | 0.0625 | 0.125 | 0.0625 | 0

Second part, led by results:

Row | Escherichia coli ATCC 25922 MIC [2] [µg/mL] | Klebsiella pneumoniae SSI3010 MIC [3] [µg/mL] | Escherichia coli MCR-1 Af 45 MIC [4] [µg/mL] | Structure (SMILES) | Hemolysis at 0.2 g/L [1] [%]
6 | 0.125 | 0.25 | 0.125 | CCCC[C@H](NC(=O)[C@H](CCCNC(=N)N)NC(=O)[C@H](CCN)NC(=O)[C@@H]1CSSC(C)(C)[C@H](NC(=O)[C@H](Cc2ccc(O)cc2)NC(=O)[C@@H](NC(=O)[C@@H](NC(=O)CN(CCN)C(=O)[C@@H](NC(=O)[C@@H]2C[C@@H](N)CN2)C(C)C)[C@@H](C)CC)[C@@H](C)CC)C(=O)N[C@@H](CC(N)=O)C(=O)N[C@@H](CCCNC(=N)N)C(=O)N[C@@H](CCN)C(=O)N[C@@H]([C@@H](C)O)C(=O)N[C@H](CCN)C(=O)N[C@@H](CCCCN)C(=O)N1)C(=O)O [Example 10, Pro((4R)NH2)-Val-Ndab-Ile-Ile-Tyr-Pen-Asn-Arg-Dab-Thr-^DDab-Lys-Cys-Dab-Arg-Nle] (H-[Pro(4R-NH2)]V[Gly(N-2-aminoethyl)]IIY[Pen]NR[Dab]T[dDab]KC[Dab]R[Nle]-OH; disulfide 7-14) | 0
7 | 0.0625 | 0.125 | ≤0.03125 | CCCC[C@H](NC(=O)[C@H](CCCNC(=N)N)NC(=O)[C@H](CCN)NC(=O)[C@@H]1CSSC(C)(C)[C@H](NC(=O)[C@H](Cc2ccc(O)cc2)NC(=O)[C@@H](NC(=O)[C@@H](NC(=O)[C@@H]2C[C@@H](N)CN2C(=O)[C@@H](NC(=O)CNCCN)C(C)C)[C@@H](C)CC)[C@@H](C)CC)C(=O)N[C@@H](CC(N)=O)C(=O)N[C@@H](CCCNC(=N)N)C(=O)N[C@@H](CCN)C(=O)N[C@@H]([C@@H](C)O)C(=O)N[C@H](CCN)C(=O)N[C@@H](CCCCN)C(=O)N1)C(=O)O [Example 11, Ndab-Val-Pro((4R)NH2)-Ile-Ile-Tyr-Pen-Asn-Arg-Dab-Thr-^DDab-Lys-Cys-Dab-Arg-Nle] (H-[Gly(N-2-aminoethyl)]V[Pro(4R-NH2)]IIY[Pen]NR[Dab]T[dDab]KC[Dab]R[Nle]-OH; disulfide 7-14) | 0
8 | 0.25 | 0.25 | 0.0625 | CCCC[C@H](NC(=O)[C@H](CCCNC(=N)N)NC(=O)[C@H](CCN)NC(=O)[C@@H]1CSSC(C)(C)[C@H](NC(=O)[C@H](Cc2ccc(O)cc2)NC(=O)[C@@H](NC(=O)[C@@H](NC(=O)CN(CCN)C(=O)[C@@H](NC(=O)CNCCN)C(C)C)[C@@H](C)CC)[C@@H](C)O)C(=O)N[C@@H](CC(N)=O)C(=O)N[C@@H](CCCNC(=N)N)C(=O)N[C@@H](CCN)C(=O)N[C@@H]([C@@H](C)O)C(=O)N[C@H](CCN)C(=O)N[C@@H](CCCCN)C(=O)N1)C(=O)O [Example 12, Ndab-Val-Ndab-Ile-Thr-Tyr-Pen-Asn-Arg-Dab-Thr-^DDab-Lys-Cys-Dab-Arg-Nle] (H-[Gly(N-2-aminoethyl)]V[Gly(N-2-aminoethyl)]ITY[Pen]NR[Dab]T[dDab]KC[Dab]R[Nle]-OH; disulfide 7-14) | 0
